Data taken from patent publication US12077503B2, “Substituted cyclic amides and their use as herbicides” (FMC CORPORATION, priority 2015, dated 2024).

Legend:
Assay type in all cases: in vivo
[1] = test system: giant foxtail (Setaria faberii); test: Test A preemergence; details: Setaria faberi, pre-emergence, 240 h, preemergence, 0 to 100 scale where 0 is no effect and 100 is complete control, read-out: Foxtail, Giant plant response rating; for pest or weed control at 125 g/ha: 125 g ai/ha, visual injury rating, approximately 10 d; for pest or weed control at 500 g/ha: 500 g ai/ha
Method in brief: (§1)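 Greenhouse, ~10 d after spray; visual injury vs untreated controls, 0 = no effect, 100 = complete control. Preemergence: directed soil spray over planted seeds. Postemergence: plants 2–10 cm, 1–2 leaf stage. Loam/sand blend. Compound in non-phytotoxic solvent with surfactant.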

[2] = test system: ragweed (common ragweed, Ambrosia elatior); test: Test A preemergence; details: Ambrosia artemisiifolia, pre-emergence, 240 h, preemergence, 0 to 100 scale where 0 is no effect and 100 is complete control, read-out: Ragweed plant response rating; for pest or weed control at 125 g/ha: 125 g ai/ha, visual injury rating, approximately 10 d; for pest or weed control at 500 g/ha: 500 g ai/ha
Method in brief: as §1

[3] = test system: pigweed (Amaranthus retroflexus); test: Test A preemergence; details: Amaranthus retroflexus, pre-emergence, 240 h, preemergence, 0 to 100 scale where 0 is no effect and 100 is complete control, read-out: Pigweed plant response rating; for pest or weed control at 125 g/ha: 125 g ai/ha, visual injury rating, approximately 10 d; for pest or weed control at 500 g/ha: 500 g ai/ha
Kochia (Kochia scoparia) = test: Test A preemergence; details: Bassia scoparia, pre-emergence, 240 h, preemergence, 0 to 100 scale where 0 is no effect and 100 is complete control, read-out: Kochia plant response rating; for pest or weed control at 125 g/ha: 125 g ai/ha, visual injury rating, approximately 10 d; for pest or weed control at 500 g/ha: 500 g ai/ha
Method in brief: as §1

[4] = test system: ryegrass, Italian (Italian ryegrass, Lolium multiflorum); test: Test A preemergence; details: Lolium multiflorum, pre-emergence, 240 h, preemergence, 0 to 100 scale where 0 is no effect and 100 is complete control, read-out: Ryegrass, Italian plant response rating; for pest or weed control at 125 g/ha: 125 g ai/ha, visual injury rating, approximately 10 d; for pest or weed control at 500 g/ha: 500 g ai/ha
Method in brief: as §1

[5] = test system: barnyardgrass (Echinochloa crus-galli); test: Test A preemergence; details: Echinochloa crus-galli, pre-emergence, 240 h, preemergence, 0 to 100 scale where 0 is no effect and 100 is complete control, read-out: Barnyardgrass plant response rating; for pest or weed control at 125 g/ha: 125 g ai/ha, visual injury rating, approximately 10 d; for pest or weed control at 500 g/ha: 500 g ai/ha
Method in brief: as §1

[6] = test system: blackgrass (Alopecurus myosuroides); test: Test A postemergence; details: Alopecurus myosuroides, post-emergence, 240 h, postemergence; for pest or weed control at 125 g/ha: 125 g ai/ha, visual injury vs untreated controls after approx. 10 d, 0 = no effect, 100 = complete control, read-out: Blackgrass plant response rating (0 to 100 scale); for pest or weed control at 500 g/ha: 500 g ai/ha, 0 to 100 scale, 0 is no effect, 100 is complete control, read-out: Blackgrass plant response rating
Method in brief: as §1

[7] = test system: giant foxtail (Setaria faberii); test: Test A postemergence; details: Setaria faberi, post-emergence, 240 h, postemergence; for pest or weed control at 125 g/ha: 125 g ai/ha, visual injury vs untreated controls after approx. 10 d, 0 = no effect, 100 = complete control, read-out: Foxtail, Giant plant response rating (0 to 100 scale); for pest or weed control at 500 g/ha: 500 g ai/ha, 0 to 100 scale, 0 is no effect, 100 is complete control, read-out: Foxtail, Giant plant response rating
Method in brief: as §1

[8] = test system: pigweed (Amaranthus retroflexus); test: Test A postemergence; details: Amaranthus retroflexus, post-emergence, 240 h, postemergence; for pest or weed control at 125 g/ha: 125 g ai/ha, visual injury vs untreated controls after approx. 10 d, 0 = no effect, 100 = complete control, read-out: Pigweed plant response rating (0 to 100 scale); for pest or weed control at 500 g/ha: 500 g ai/ha, 0 to 100 scale, 0 is no effect, 100 is complete control, read-out: Pigweed plant response rating
Method in brief: as §1

[9] = test system: ryegrass, Italian (Italian ryegrass, Lolium multiflorum); test: Test A postemergence; details: Lolium multiflorum, post-emergence, 240 h, postemergence; for pest or weed control at 125 g/ha: 125 g ai/ha, visual injury vs untreated controls after approx. 10 d, 0 = no effect, 100 = complete control, read-out: Ryegrass, Italian plant response rating (0 to 100 scale); for pest or weed control at 500 g/ha: 500 g ai/ha, 0 to 100 scale, 0 is no effect, 100 is complete control, read-out: Ryegrass, Italian plant response rating
Method in brief: as §1

[10] = test system: wheat (Triticum aestivum); test: Test A postemergence; details: Triticum aestivum, post-emergence, 240 h, postemergence; for plant injury at 125 g/ha: 125 g ai/ha, visual injury vs untreated controls after approx. 10 d, 0 = no effect, 100 = complete control, read-out: Wheat plant response rating (0 to 100 scale); for plant injury at 500 g/ha: 500 g ai/ha, 0 to 100 scale, 0 is no effect, 100 is complete control, read-out: Wheat plant response rating
Method in brief: as §1

rice (Oryra sativa) = test: Test B flooded paddy test; details: Oryza sativa, 250 g ai/ha, Flood; 0 to 100 scale where 0 is no effect and 100 is complete control; read-out: Rice plant response rating
Method in brief: (§2)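 Plants at 2-leaf stage flooded to 3 cm above soil, with compounds applied directly to paddy water and that depth maintained. Plants kept in greenhouse 13–15 d. Visual rating versus controls on a 0 (no effect) to 100 (complete control) scale.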

[11] = test system: ducksalad (Heteranthera limosa); test: Test B flooded paddy test; details: Heteranthera limosa, 250 g ai/ha, Flood; 0 to 100 scale where 0 is no effect and 100 is complete control; read-out: Ducksalad plant response rating
Method in brief: as §2

[12] = test system: sedge, umbrella (small-flower umbrella sedge, Cyperus difformis); test: Test B flooded paddy test; details: Cyperus difformis, 250 g ai/ha, Flood; 0 to 100 scale where 0 is no effect and 100 is complete control; read-out: Sedge, Umbrella plant response rating
Method in brief: as §2

[13] = test system: barnyardgrass (Echinochloa crus-galli); test: Test B flooded paddy test; details: Echinochloa crus-galli, 250 g ai/ha, Flood; 0 to 100 scale where 0 is no effect and 100 is complete control; read-out: Barnyardgrass plant response rating
Method in brief: as §2

SMILES	pest or weed control at 125 g/ha [1] [%]	pest or weed control at 500 g/ha [1] [%]	pest or weed control at 125 g/ha [2] [%]	pest or weed control at 500 g/ha [2] [%]	pest or weed control at 125 g/ha [3] [%]	pest or weed control at 500 g/ha [3] [%]	pest or weed control at 125 g/ha (Kochia (Kochia scoparia)) [%]	pest or weed control at 500 g/ha (Kochia (Kochia scoparia)) [%]	pest or weed control at 125 g/ha [4] [%]	pest or weed control at 500 g/ha [4] [%]	pest or weed control at 125 g/ha [5] [%]	pest or weed control at 500 g/ha [5] [%]	pest or weed control at 125 g/ha [6] [%]	pest or weed control at 500 g/ha [6] [%]	pest or weed control at 125 g/ha [7] [%]	pest or weed control at 500 g/ha [7] [%]	pest or weed control at 125 g/ha [8] [%]	pest or weed control at 500 g/ha [8] [%]	pest or weed control at 125 g/ha [9] [%]	pest or weed control at 500 g/ha [9] [%]	further results
O=C1NC[C@H](c2ccc(C(F)(F)F)cc2)C1C(=O)Nc1c(F)cccc1CO (stereo partly drawn) [Compound 1243]	0	0	0	0	0	0	0	0	0	0	0	0	0	0	0	0	0	0	0	0	plant injury at 125 g/ha [10]: 0%; pest or weed control at 250 g/ha (rice (Oryra sativa)): 0%; pest or weed control at 250 g/ha [11]: 0%; pest or weed control at 250 g/ha [12]: 0%; pest or weed control at 250 g/ha [13]: 0%
CN1CC[C@H](c2ccc(C(F)(F)F)cc2)[C@@H](C(=O)Nc2ccc(F)c(F)c2F)C1=O [Compound 1226]	100	100	0	30	80	90	60	70	80	80	90	100	20	30	80	80	20	60	0	0	plant injury at 125 g/ha [10]: 0%; plant injury at 500 g/ha [10]: 0%; pest or weed control at 250 g/ha (rice (Oryra sativa)): 20%; pest or weed control at 250 g/ha [11]: 100%; pest or weed control at 250 g/ha [12]: 0%; pest or weed control at 250 g/ha [13]: 60%
N#Cc1cc([C@H]2CNC(=O)[C@@H]2C(=O)Nc2ccccc2F)ccc1F [Compound 1199]	90	100	30	90	0	60	0	0	0	0	90	100	0	0	70	90	0	20	0	20	plant injury at 125 g/ha [10]: 0%; plant injury at 500 g/ha [10]: 0%; pest or weed control at 250 g/ha (rice (Oryra sativa)): 0%; pest or weed control at 250 g/ha [11]: 95%; pest or weed control at 250 g/ha [12]: 0%; pest or weed control at 250 g/ha [13]: 40%
COc1cc([C@H]2CN(C)C(=O)[C@@H]2C(=O)Nc2ccccc2SC)cc(OC)c1OC [Compound 1218]	80	90	0	0	0	0	0	0	0	0	30	100	0	0	0	50	0	0	0	0	plant injury at 125 g/ha [10]: 0%; plant injury at 500 g/ha [10]: 0%; pest or weed control at 250 g/ha (rice (Oryra sativa)): 0%; pest or weed control at 250 g/ha [11]: 40%; pest or weed control at 250 g/ha [12]: 0%; pest or weed control at 250 g/ha [13]: 0%
Cc1cc([C@H]2CN(C)C(=O)[C@@H]2C(=O)Nc2ccccc2F)no1 [Compound 1194]	0	20	0	0	0	0	0	0	0	0	0	30	0	0	0	20	0	0	0	0	plant injury at 125 g/ha [10]: 0%; plant injury at 500 g/ha [10]: 0%; pest or weed control at 250 g/ha (rice (Oryra sativa)): 0%; pest or weed control at 250 g/ha [11]: 0%; pest or weed control at 250 g/ha [12]: 0%; pest or weed control at 250 g/ha [13]: 0%
